10 compounds from patent US12448518B2, “Phthalocyanine dye compounds, conjugates and methods of use thereof” (Rakuten Medical, Inc., priority 2020, dated 2025) can be followed below.

The nature of data set [1]: Singlet oxygen quantum yield, indirect method with chemical quencher (DPBF or ADMA). It is filed as physicochemical. From the text: Photogeneration quantum yields of singlet oxygen (ΦΔ) were obtained by an indirect method, using either diphenylisobenzofuran (DBPF) or anthracene-9,10-bis-methylmalonate (ADMA) as chemical quenchers in either N,N-dimethylformamide or aqueous media, respectively. Typically, a solution of the phthalocyanine and the quencher was irradiated with a red LED lamp (670 nm) at 5 mW/cm^2. The initial DPBF or ADMA concentrations were kept the same for both the reference and the test samples. The degradation of the DPBF band at 414 nm or ADMA at 401 nm was monitored in a Varian Cary® 50 UV-Vis spectrophotometer, every five seconds in the case of DPBF (up to 30 seconds) and every minute in the case of ADMA (up to five minutes). ZnPc (ΦΔ=0.67) and AlPcSmix (ΦΔ=0.42) were used as references in N,N-dimethylformamide or aqueous media, respectively.
The relative method shown by Eq. (1) was employed for calculations of the ΦΔ:
[formula] where ΦΔ and ΦΔref are the ^1O2 generation quantum yields for the sample and reference, respectively, m and mref are the DPBF or ADMA photobleaching rates in the presence of the phthalocyanine of the invention and the reference, respectively, and I and Iref are the rates of light absorption by the phthalocyanine derivative and reference, respectively. Concentrations of the test compound and reference were chosen such that their respective absorptions at the irradiation wavelength were the same.

The test system of data set [2] is BxPC3 cells. As to the kind of experiment: Cell killing of free dye PIT, CellTox Green Cytotoxicity Assay. It is filed as cell-based. The settings on record: BxPC3, 0.00137-1 μg/mL, 690 nm laser 64 J/cm^2, 24 hours after light. As to the method: The PIT killing activity of free dyes were evaluated using the molecules synthesized as Example 12 and Example 13. BxPC3 cells (#CRL-1687, ATCC, Manassas VA) were plated, 5,000 cells per well, in RPMI-1640 media supplemented with 10% FBS and 1% Penicillin/Streptomycin (complete culture media) in a deep-well 96-well plate. Following overnight incubation at 37° C., the culture media were removed and the cells were incubated in 100 μL complete media with 1, 0.333, 0.111, 0.03704, 0.01235, 0.00412, 0.00137, or 0 μg/mL Example 12, Example 13, or IRDye 700DX carboxylate (control) for one hour at 4° C. […]
The effect of different treatment regimens on cell death was measured using the CellTox™ Green Cytotoxicity Assay (Cat No: G8742, Promega, Madison, WI). […] The CellTox™ Green fluorescence signal was measured at 24 hours after light treatment using a fluorescence plate reader. The cells were then lysed with diluted lysis solution (Cat No: G1821, Promega, Madison, WI), incubated at 37° C. for 30 minutes, and the CellTox™ Green fluorescence signal was measured again post-lysis. The percentages of dead cells were calculated by taking the ratio between background (1× CellTox™ Green in complete culture media without cells)-subtracted CellTox™ Green signal per well prior to and post lysis and multiplying the ratio by 100.

The nature of data set [3]: Kinetic (aqueous) solubility in pH 7.4 DPBS, UV quantification. The note with it: for Solubility* (kinetic): pH 7.4 DPBS, 4 hours, room temperature (25° C.), from 10 mM DMSO stock.
The mark [4] stands for this setting: quencher ADMA, aqueous media, 670 nm LED 5 mW/cm^2, reference AlPcSmix.

`COCCOCCOCC(=O)NCCC[Si](C)(C)O[Si-2]123(O[Si](C)(C)CCCNC(=O)CCCCC(=O)O)n4c5c6ccccc6c4N=C4c6ccccc6C(=[N+]41)N=c1c4ccccc4c(n12)=NC1=[N+]3C(=N5)c2ccccc21` [Example 1, 6-((3-(dimethyl((19-((15-methyl-10-oxo-2,5,8-trioxa-11-aza-15-silahexadecan-15-yl)oxy)-19H-6,11-(azeno)-17,21-(azeno[3]episoindoloazeno)benzo[7,8][1,3,5,10]tetraaza[2]silacycloundecino[4,3-a:11,1-a′]diisoindol-19-yl)oxy)silyl)propyl)amino)-6-oxohexanoic acid]: the “ΦΔ (singlet oxygen quantum yield)” value in data set [1] (quencher DPBF, N,N-dimethylformamide, 670 nm LED 5 mW/cm^2, reference ZnPc) is reported as “A (≤0.5)”.

“4-((6-((λ5-azaneyl)oxy)-6-oxohexyl)(4-(((λ5-azaneyl)oxy)sulfonyl)butyl)(3-(((19-(((3-(bis(4-(((λ5-azaneyl)oxy)sulfonyl)butyl)(4-sulfonatobutyl)ammonio)propyl)dimethylsilyl)oxy)-19H-6,11-(azeno)-17,21-(azeno[3]episoindoloazeno)benzo[7,8][1,3,5,10]tetraaza[2]silacycloundecino[4,3-a:11,1-a′]diisoindol-19-yl)oxy)dimethylsilyl)propyl)ammonio)butane-1-sulfonate [Example 13]”: in data set [2], the “cell death after illumination (free dye)” value is “dose-dependent cytotoxicity”. For the same compound, the “ΦΔ (singlet oxygen quantum yield)” value in data set [1] (setting [4]) is listed as “B (>0.5)”. Further, the “Solubility* (kinetic)” value in data set [3] is recorded as “C (>100 μg/mL)”.

In the case of `C[Si](C)(CCCNC(=O)COCC(=O)O)O[Si]1(O[Si](C)(C)CCCNC(=O)NCCS(=O)(=O)O)n2c3c4ccccc4c2N=C2N=C(N=c4c5ccccc5c(n41)=NC1=NC(=N3)c3ccccc31)c1ccccc12.N` (stereo not shown) [Example 7, Ammonium 2-(2-((3-(((19-((dimethyl(3-(3-(2-sulfonatoethyl)ureido)propyl)silyl)oxy)-19H-6,11-(azeno)-17,21-(azeno[1]episoindoloazeno)benzo[7,8][1,3,5,10]tetraaza[2]silacycloundecino[4,3-a:11,1-a′]diisoindol-19-yl)oxy)dimethylsilyl)propyl)amino)-2-oxoethoxy)acetate], the “Solubility* (kinetic)” value in data set [3] was “A (≤1 μg/mL)”.

On to `C[Si](C)(CCC[N+](CCCCS(=O)(=O)O)(CCCCS(=O)(=O)O)CCCCS(=O)(=O)O)O[Si-2]123(O[Si](C)(C)CCC[N+](CCCCS(=O)(=O)O)(CCCCS(=O)(=O)O)CCOCCOCCOCCC(=O)O)n4c5c6ccccc6c4N=C4c6ccccc6C(=[N+]41)N=c1c4ccccc4c(n12)=NC1=[N+]3C(=N5)c2ccccc21.[Na+].[Na+].[Na+].[Na+]` [Example 17, Sodium 2-((19-((dimethyl(3-(tris(4-sulfonatobutyl)ammonio)propyl)silyl)oxy)-19H-6,11-(azeno)-17,21-(azeno[3]episoindoloazeno)benzo[7,8][1,3,5,10]tetraaza[2]silacycloundecino[4,3-a:11,1-a′]diisoindol-19-yl)oxy)-2-methyl-6,6-bis(4-sulfonatobutyl)-9,12,15-trioxa-6-aza-2-silaoctadecan-6-ium-18-oate], for which the “ΦΔ (singlet oxygen quantum yield)” value in data set [1] (setting [4]) was “B (>0.5)”.

`C[Si](C)(CCCNC(=O)CCCN(CCCS(=O)(=O)O)CCCS(=O)(=O)O)O[Si]1(O[Si](C)(C)CCCNC(=O)COCC(=O)O)n2c3c4ccccc4c2N=C2N=C(N=c4c5ccccc5c(n41)=NC1=NC(=N3)c3ccccc31)c1ccccc12.N` (stereo not shown) [Example 15, Ammonium 2-(2-((3-(((19-(((3-(4-(bis(3-sulfonatopropyl)ammonio)butanamido)propyl)dimethylsilyl)oxy)-19H-6,11-(azeno)-17,21-(azeno[1]episoindoloazeno)benzo[7,8][1,3,5,10]tetraaza[2]silacycloundecino[4,3-a:11,1-a′]diisoindol-19-yl)oxy)dimethylsilyl)propyl)amino)-2-oxoethoxy)acetate]: the “Solubility* (kinetic)” value in data set [3] was “B (>1 μg/mL to ≤100 μg/mL)”.

As to `C[Si](C)(CCCNC(=O)COCC(=O)O)O[Si]1(O[Si](C)(C)CCCNC(=O)NCC(S(=O)(=O)O)S(=O)(=O)O)n2c3c4ccccc4c2N=C2N=C(N=c4c5ccccc5c(n41)=NC1=NC(=N3)c3ccccc31)c1ccccc12.N` (stereo not shown) [Example 8, Ammonium 2-(2-((3-(((19-(((3-(3-(2,2-disulfonatoethyl)ureido)propyl)dimethylsilyl)oxy)-19H-6,11-(azeno)-17,21-(azeno[1]episoindoloazeno)benzo[7,8][1,3,5,10]tetraaza[2]silacycloundecino[4,3-a:11,1-a′]diisoindol-19-yl)oxy)dimethylsilyl)propyl)amino)-2-oxoethoxy)acetate], in data set [3], the “Solubility* (kinetic)” value is “A (≤1 μg/mL)”.

Take “Ammonium 3-((4-((3-(((19-(((3-(2-(carboxymethoxy)acetamido)propyl)dimethylsilyl)oxy)-19H-6,11-(azeno)-17,21-(azeno[3]episoindoloazeno)benzo[7,8][1,3,5,10]tetraaza[2]silacycloundecino[4,3-a:11,1-a′]diisoindol-19-yl)oxy)dimethylsilyl)propyl)amino)-4-oxobutyl)bis(3-sulfopropyl)ammonio)propane-1-sulfonae [Example 5]”: the “ΦΔ (singlet oxygen quantum yield)” value in data set [1] (setting [4]) was “B (>0.5)”.

As for `C[Si](C)(CCC[N+](CCCCS(=O)(=O)[O-])(CCCCS(=O)(=O)[O-])CCCCS(=O)(=O)[O-])O[Si@@]1(O[Si](C)(C)CCC[N+](CCCCS(=O)(=O)[O-])(CCCCS(=O)(=O)[O-])CCOCCOCCC(=O)[O-])n2c3c4ccccc4c2/N=C2N=C(/N=c4/c5ccccc5/c(n41)=N/C1=NC(=N\3)/c3ccccc31)c1ccccc1\2.[Na+].[Na+].[Na+].[Na+]` [Example 18, Sodium 2-((19-((dimethyl(3-(tris(4-sulfonatobutyl)ammonio)propyl)silyl)oxy)-19H-6,11-(azeno)-17,21-(azeno[3]episoindoloazeno)benzo[7,8][1,3,5,10]tetraaza[2]silacycloundecino[4,3-a:11,1-a′]diisoindol-19-yl)oxy)-2-methyl-6,6-bis(4-sulfonatobutyl)-9,12-dioxa-6-aza-2-silapentadecan-6-ium-15-oate], in data set [1] (setting [4]), the “ΦΔ (singlet oxygen quantum yield)” value is on record as “B (>0.5)”. The “Solubility* (kinetic)” value in data set [3] is “C (>100 μg/mL)”.

One may read the kinetic solubility as solubility judged after dilution from a stock solution rather than from solid. For `C[Si](C)(CCC[N+](CCCS(=O)(=O)O)(CCCS(=O)(=O)O)CCCS(=O)(=O)O)O[Si-2]123(O[Si](C)(C)CCC[N+](CCCS(=O)(=O)O)(CCCS(=O)(=O)O)CCOCCOCCOCCC(=O)O)n4c5c6ccccc6c4N=C4c6ccccc6C(=[N+]41)N=c1c4ccccc4c(n12)=NC1=[N+]3C(=N5)c2ccccc21.[Na+].[Na+].[Na+].[Na+]` [Example 19, Sodium 2-((19-((dimethyl(3-(tris(3-sulfonatopropyl)ammonio)propyl)silyl)oxy)-19H-6,11-(azeno)-17,21-(azeno[3]episoindoloazeno)benzo[7,8][1,3,5,10]tetraaza[2]silacycloundecino[4,3-a:11,1-a′]diisoindol-19-yl)oxy)-2-methyl-6,6-bis(3-sulfonatopropyl)-9,12,15-trioxa-6-aza-2-silaoctadecan-6-ium-18-oate], the “ΦΔ (singlet oxygen quantum yield)” value in data set [1] (setting [4]) was “B (>0.5)”. In data set [3] (25 °C, pH 7.4, aqueous buffer, kinetic from dmso stock), this compound returned a solubility (kinetic) at 4 h greater than 100 µg/mL.

As to “3-((6-((λ^5-azaneyl)oxy)-6-oxohexyl)(3-(((λ5-azaneyl)oxy)sulfonyl)propyl)(3-(((19-(((3-(bis(3-(((λ5-azaneyl)oxy)sulfonyl)propyl)(3-sulfonatopropyl)ammonio)propyl)dimethylsilyl)oxy)-19H-6,11-(azeno)-17,21-(azeno[3]episoindoloazeno)benzo[7,8][1,3,5,10]tetraaza[2]silacycloundecino[4,3-a:11,1-a′]diisoindol-19-yl)oxy)dimethylsilyl)propyl)ammonio)propane-1-sulfonate [Example 12]”, the “cell death after illumination (free dye)” value in data set [2] is on record as “dose-dependent cytotoxicity”. Also, the “ΦΔ (singlet oxygen quantum yield)” value in data set [1] (setting [4]) is given as “B (>0.5)”. For the same compound, the “Solubility* (kinetic)” value in data set [3] is “C (>100 μg/mL)”.
